Counter-ions that a name gives are not always drawn.

The target of one experiment is Bile salt export pump (Homo sapiens, UniProt O95342). As to the kind of experiment: Inhibition of human BSEP overexpressed in Sf9 cell membrane vesicles assessed as uptake of [3H]-taurocholate in presence of ATP measured after 15 to 20 mins by membrane vesicle transport assay. Format: ADME, cell-based.
Experiment [1] concerns the target ATP-binding cassette sub-family C member 2 (Homo sapiens, UniProt Q92887). As to the kind of experiment: Inhibition of human MRP2 overexpressed in Sf9 cell membrane vesicles assessed as uptake of [3H]-estradiol-17beta-D-glucuronide in presence of ATP and GSH measured after 20 mins by membrane vesicle transport assay.
Experiment [2] deals with ATP-binding cassette sub-family C member 3 (Homo sapiens, UniProt O15438). As to the kind of experiment: Inhibition of human MRP3 overexpressed in Sf9 insect cell membrane vesicles assessed as uptake of [3H]-estradiol-17beta-D-glucuronide in presence of ATP and GSH measured after 10 mins by membrane vesicle transport assay. Format: ADME, cell-based.
Chain of ATP-binding cassette sub-family C member 3 (O15438 whole entry): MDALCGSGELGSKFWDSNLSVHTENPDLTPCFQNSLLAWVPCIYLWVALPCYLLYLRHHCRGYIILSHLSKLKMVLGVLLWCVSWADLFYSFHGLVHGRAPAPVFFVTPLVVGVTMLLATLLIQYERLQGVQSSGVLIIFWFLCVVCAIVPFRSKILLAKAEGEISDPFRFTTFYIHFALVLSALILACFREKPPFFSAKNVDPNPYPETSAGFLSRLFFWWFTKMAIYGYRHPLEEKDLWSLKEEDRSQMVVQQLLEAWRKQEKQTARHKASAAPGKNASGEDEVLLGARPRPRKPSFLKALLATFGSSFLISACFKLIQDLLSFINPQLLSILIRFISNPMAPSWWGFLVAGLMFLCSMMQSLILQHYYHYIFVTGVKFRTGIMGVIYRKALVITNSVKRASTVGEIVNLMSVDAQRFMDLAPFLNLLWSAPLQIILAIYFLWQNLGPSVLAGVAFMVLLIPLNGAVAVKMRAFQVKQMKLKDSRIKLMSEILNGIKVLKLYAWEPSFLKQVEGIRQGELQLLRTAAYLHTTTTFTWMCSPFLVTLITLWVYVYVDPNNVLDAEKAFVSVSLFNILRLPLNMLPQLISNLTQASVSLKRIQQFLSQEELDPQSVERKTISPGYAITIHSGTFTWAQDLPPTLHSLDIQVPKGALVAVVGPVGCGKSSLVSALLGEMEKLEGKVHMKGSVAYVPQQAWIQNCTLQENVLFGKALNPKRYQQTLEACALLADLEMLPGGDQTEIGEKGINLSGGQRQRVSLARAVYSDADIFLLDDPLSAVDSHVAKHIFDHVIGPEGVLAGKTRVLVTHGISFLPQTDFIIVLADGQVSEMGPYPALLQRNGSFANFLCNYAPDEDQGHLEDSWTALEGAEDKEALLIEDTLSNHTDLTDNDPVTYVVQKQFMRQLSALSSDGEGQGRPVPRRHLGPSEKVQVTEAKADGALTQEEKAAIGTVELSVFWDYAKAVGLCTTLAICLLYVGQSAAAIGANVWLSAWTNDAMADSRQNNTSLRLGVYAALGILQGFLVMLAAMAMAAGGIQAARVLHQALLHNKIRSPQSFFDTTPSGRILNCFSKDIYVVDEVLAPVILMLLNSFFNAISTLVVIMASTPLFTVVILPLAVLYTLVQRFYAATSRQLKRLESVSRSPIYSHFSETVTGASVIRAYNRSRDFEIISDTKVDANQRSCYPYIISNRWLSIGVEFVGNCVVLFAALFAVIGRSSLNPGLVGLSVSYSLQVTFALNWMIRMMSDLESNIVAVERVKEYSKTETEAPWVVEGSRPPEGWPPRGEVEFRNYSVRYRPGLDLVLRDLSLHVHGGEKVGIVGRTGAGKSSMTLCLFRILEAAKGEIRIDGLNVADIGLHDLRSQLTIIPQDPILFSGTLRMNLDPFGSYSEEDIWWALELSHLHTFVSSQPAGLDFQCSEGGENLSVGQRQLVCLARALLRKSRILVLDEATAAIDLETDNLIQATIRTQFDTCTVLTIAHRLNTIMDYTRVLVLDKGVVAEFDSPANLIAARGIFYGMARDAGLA
Experiment [3] concerns the target T1, ATP-binding cassette sub-family C member 4 (Homo sapiens, UniProt O15439).
T1 sequence (O15439 whole entry): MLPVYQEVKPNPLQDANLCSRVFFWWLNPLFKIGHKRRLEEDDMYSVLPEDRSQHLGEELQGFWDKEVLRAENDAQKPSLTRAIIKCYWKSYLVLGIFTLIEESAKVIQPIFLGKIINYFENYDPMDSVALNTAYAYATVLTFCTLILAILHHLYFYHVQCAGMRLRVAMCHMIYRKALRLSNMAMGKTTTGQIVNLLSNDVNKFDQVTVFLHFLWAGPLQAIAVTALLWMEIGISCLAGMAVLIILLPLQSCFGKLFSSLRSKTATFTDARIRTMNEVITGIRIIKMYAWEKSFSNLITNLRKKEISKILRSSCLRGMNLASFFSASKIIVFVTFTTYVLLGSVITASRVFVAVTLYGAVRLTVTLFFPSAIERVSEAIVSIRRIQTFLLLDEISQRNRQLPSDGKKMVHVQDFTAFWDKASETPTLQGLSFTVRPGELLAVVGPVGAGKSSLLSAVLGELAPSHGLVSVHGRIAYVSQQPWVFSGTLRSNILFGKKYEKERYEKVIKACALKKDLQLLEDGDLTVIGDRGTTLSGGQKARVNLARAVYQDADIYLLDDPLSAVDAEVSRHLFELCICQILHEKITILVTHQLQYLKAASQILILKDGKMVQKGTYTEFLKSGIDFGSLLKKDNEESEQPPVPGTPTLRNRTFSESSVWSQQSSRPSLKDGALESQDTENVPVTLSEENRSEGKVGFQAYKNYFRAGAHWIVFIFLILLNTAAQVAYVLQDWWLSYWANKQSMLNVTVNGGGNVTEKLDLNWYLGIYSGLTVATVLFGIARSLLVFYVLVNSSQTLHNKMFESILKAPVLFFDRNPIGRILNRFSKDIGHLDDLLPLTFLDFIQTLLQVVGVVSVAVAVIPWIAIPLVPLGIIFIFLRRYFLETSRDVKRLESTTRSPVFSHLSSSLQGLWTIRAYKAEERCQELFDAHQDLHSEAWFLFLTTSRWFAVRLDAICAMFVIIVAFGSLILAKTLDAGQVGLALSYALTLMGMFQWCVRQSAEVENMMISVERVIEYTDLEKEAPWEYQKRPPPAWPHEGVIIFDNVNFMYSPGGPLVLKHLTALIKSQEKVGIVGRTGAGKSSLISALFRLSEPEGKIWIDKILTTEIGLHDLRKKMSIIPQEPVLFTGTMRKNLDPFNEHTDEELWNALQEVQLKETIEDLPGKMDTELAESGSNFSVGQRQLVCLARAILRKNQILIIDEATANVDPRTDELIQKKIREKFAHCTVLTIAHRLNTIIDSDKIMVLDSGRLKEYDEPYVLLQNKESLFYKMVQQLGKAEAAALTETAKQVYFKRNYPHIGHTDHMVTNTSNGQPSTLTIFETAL
As to the kind of experiment: Inhibition of human MRP4 overexpressed in Sf9 cell membrane vesicles assessed as uptake of [3H]-estradiol-17beta-D-glucuronide in presence of ATP and GSH measured after 20 mins by membrane vesicle transport assay. Format: ADME, cell-based.

Chain of Bile salt export pump (O95342 whole entry): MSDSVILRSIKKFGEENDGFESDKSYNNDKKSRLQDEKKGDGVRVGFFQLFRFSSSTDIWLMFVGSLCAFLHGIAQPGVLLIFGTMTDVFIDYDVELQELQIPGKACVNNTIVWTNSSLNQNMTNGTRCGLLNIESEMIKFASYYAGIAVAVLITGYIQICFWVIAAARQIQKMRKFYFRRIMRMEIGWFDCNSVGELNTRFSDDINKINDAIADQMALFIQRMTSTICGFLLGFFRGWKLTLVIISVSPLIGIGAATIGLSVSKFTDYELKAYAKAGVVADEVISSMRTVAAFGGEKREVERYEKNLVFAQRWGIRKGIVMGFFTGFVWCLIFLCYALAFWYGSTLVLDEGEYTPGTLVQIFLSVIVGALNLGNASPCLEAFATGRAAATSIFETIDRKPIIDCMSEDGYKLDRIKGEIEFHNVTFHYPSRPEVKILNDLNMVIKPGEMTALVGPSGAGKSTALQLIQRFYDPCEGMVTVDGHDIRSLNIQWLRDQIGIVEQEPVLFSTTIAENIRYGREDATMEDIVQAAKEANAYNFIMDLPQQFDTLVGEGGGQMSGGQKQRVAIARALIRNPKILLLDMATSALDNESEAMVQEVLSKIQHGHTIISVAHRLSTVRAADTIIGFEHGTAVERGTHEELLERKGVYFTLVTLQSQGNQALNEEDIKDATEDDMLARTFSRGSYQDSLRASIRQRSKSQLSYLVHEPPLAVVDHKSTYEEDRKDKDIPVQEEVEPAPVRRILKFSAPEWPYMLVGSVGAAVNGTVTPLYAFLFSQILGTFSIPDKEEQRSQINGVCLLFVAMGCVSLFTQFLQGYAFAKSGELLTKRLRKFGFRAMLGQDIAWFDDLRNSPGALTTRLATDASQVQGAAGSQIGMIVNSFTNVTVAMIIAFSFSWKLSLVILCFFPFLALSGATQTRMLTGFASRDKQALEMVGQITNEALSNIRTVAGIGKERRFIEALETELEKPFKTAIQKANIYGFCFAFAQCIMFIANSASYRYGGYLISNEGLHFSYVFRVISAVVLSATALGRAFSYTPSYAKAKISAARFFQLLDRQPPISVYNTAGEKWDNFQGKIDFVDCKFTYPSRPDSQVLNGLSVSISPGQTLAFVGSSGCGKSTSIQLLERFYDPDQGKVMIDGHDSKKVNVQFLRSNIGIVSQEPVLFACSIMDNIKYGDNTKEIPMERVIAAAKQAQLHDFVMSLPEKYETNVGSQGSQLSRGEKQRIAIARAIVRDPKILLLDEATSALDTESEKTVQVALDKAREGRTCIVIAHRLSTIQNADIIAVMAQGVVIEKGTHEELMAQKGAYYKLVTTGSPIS
Chain of ATP-binding cassette sub-family C member 2 (Q92887 whole entry): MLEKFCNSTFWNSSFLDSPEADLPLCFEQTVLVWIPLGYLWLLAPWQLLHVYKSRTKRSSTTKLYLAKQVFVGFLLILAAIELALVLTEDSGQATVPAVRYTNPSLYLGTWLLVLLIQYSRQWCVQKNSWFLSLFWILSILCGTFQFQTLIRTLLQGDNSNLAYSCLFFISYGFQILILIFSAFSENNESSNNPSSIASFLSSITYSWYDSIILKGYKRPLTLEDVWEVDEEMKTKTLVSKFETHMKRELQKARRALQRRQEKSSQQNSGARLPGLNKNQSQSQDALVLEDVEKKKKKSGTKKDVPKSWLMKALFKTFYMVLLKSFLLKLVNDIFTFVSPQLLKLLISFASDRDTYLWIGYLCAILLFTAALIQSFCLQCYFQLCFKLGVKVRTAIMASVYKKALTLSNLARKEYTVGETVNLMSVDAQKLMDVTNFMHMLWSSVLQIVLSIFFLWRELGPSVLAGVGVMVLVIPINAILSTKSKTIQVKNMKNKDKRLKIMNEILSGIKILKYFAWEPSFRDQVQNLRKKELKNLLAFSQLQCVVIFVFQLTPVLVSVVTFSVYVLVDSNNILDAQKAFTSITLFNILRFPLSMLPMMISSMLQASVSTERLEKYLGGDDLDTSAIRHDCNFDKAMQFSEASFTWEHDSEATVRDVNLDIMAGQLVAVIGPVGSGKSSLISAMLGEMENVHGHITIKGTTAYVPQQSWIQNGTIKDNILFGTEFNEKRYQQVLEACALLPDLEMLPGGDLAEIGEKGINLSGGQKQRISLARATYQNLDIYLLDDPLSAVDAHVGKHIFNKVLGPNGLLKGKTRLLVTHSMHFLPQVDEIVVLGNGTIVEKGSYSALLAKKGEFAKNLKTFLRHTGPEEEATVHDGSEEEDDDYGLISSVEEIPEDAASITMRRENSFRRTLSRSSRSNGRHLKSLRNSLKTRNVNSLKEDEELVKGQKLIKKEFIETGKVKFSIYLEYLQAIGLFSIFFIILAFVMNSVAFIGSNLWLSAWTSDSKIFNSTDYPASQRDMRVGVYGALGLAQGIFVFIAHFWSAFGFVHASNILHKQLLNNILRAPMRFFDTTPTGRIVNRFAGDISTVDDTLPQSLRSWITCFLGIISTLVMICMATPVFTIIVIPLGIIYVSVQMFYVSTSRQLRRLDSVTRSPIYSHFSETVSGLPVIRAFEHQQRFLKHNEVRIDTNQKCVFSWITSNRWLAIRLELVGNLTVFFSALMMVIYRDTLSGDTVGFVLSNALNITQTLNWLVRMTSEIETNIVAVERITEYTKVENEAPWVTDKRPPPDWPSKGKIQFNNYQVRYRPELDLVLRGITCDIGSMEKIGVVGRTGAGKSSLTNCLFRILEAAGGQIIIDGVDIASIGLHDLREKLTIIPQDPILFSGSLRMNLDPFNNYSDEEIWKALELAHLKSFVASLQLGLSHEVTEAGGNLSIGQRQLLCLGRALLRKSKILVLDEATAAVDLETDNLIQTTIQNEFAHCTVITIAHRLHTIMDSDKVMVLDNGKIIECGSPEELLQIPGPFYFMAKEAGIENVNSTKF

Consider `O=C1OC(OC(=O)c2cccnc2Nc2cccc(C(F)(F)F)c2)c2ccccc21` (stereo not drawn) [TALNIFLUMATE], for which the IC50 (at Bile salt export pump; in experiment [1]; in experiment [2]; in experiment [3]) was over 133 µM throughout.
Turning to `C[C@H](CS)C(=O)N1CCC[C@H]1C(=O)O` [CAPTOPRIL], the IC50 (on Bile salt export pump; in experiment [1]; in experiment [2]; in experiment [3]) was over 133 µM throughout.
Turning to `CN(CCCN1c2ccccc2CCc2ccccc21)CC(=O)c1ccc(Cl)cc1` [LOFEPRAMINE], the 50% inhibitory concentration (IC50) (on Bile salt export pump; in experiment [1]; in experiment [2]; in experiment [3]) was over 133 µM throughout.
In the case of `NC[C@H]1O[C@H](O[C@H]2[C@H](O)[C@@H](O[C@H]3O[C@H](CO)[C@@H](O)[C@H](N)[C@H]3O)[C@H](N)C[C@@H]2N)[C@H](O)[C@@H](O)[C@@H]1O` [KANAMYCIN], the half-maximal inhibitory concentration (IC50) (on Bile salt export pump; in experiment [1]; in experiment [2]; in experiment [3]) was over 133 µM in each case.
As to `CN(C)CC[C@@H](c1ccc(Cl)cc1)c1ccccn1` [DEXCHLORPHENIRAMINE MALEATE], the IC50 (at Bile salt export pump; in experiment [1]; in experiment [2]; in experiment [3]) was over 133 µM throughout.
Take `CCCNC(=O)NS(=O)(=O)c1ccc(Cl)cc1` [CHLORPROPAMIDE]: the IC50 (on Bile salt export pump; in experiment [1]; in experiment [2]; in experiment [3]) was over 133 µM in each case.
On to `CC(C)[C@H](N)C(=O)OCCOCn1cnc2c(=O)[nH]c(N)nc21` [VALACYCLOVIR HYDROCHLORIDE], for which the half-maximal inhibitory concentration (IC50) (on Bile salt export pump; in experiment [1]; in experiment [2]; in experiment [3]) was over 133 µM in each case.
As for `C=CCCCCCCCCC(=O)O` [UNDECYLENIC ACID], the IC50 at Bile salt export pump is over 133 µM; in experiment [1], over 133 µM; in experiment [2] it was over 133 µM; in experiment [3], 63.9 µM.
As to `CC(=O)N(CC(O)CO)c1c(I)c(C(=O)NCC(O)CO)c(I)c(C(=O)NCC(O)CO)c1I` (stereo not drawn) [IOHEXOL], the half-maximal inhibitory concentration (IC50) (at Bile salt export pump; in experiment [1]; in experiment [2]; in experiment [3]) was over 133 µM throughout.
Consider `CCCN[C@H]1CCc2nc(N)sc2C1` [PRAMIPEXOLE], for which the IC50 (at Bile salt export pump; in experiment [1]; in experiment [2]; in experiment [3]) was over 133 µM throughout.
`O=C1Nc2ccc(Cl)cc2[C@@](C#CC2CC2)(C(F)(F)F)O1` [EFAVIRENZ]: the IC50 (on Bile salt export pump; in experiment [1]; in experiment [2]; in experiment [3]) was over 133 µM throughout.
For `CC(C)(C)c1ccc(C(O)CCCN2CCC(C(O)(c3ccccc3)c3ccccc3)CC2)cc1` (stereo not drawn) [TERFENADINE], the IC50 (at Bile salt export pump; in experiment [1]; in experiment [2]; in experiment [3]) was over 133 µM each time.
Consider `CC(NC(C)(C)C)C(=O)c1cccc(Cl)c1` (stereo not drawn) [BUPROPION HYDROCHLORIDE], for which the IC50 (at Bile salt export pump; in experiment [1]; in experiment [2]; in experiment [3]) was over 133 µM each time.
As to `CCn1cc(C(=O)O)c(=O)c2ccc(C)nc21` [NALIDIXIC ACID], the IC50 was over 133 µM on Bile salt export pump, over 133 µM in experiment [1], over 133 µM in experiment [2] and 57.5 µM in experiment [3].
On to `Cc1cccc(C)c1OCC(C)N` (stereo not drawn) [MEXILETINE], for which the IC50 (at Bile salt export pump; in experiment [1]; in experiment [2]; in experiment [3]) was over 133 µM throughout.
As for `C/C(=C\C(=O)OCCCCCCCCC(=O)O)C[C@@H]1OC[C@H](C[C@@H]2O[C@H]2[C@@H](C)[C@H](C)O)[C@@H](O)[C@H]1O` [MUPIROCIN], the 50% inhibitory concentration (IC50) (at Bile salt export pump; in experiment [1]; in experiment [2]; in experiment [3]) was over 133 µM in each case.
Regarding `C#C[C@]1(O)CC[C@H]2[C@@H]3CCC4=CC(=O)CC[C@@H]4[C@H]3CC[C@@]21CC` [LEVONORGESTREL], the half-inhibitory concentration (IC50) (on Bile salt export pump; in experiment [1]; in experiment [2]; in experiment [3]) was over 133 µM in each case.
Regarding `Cc1nnc(SCC2=C(C(=O)O)N3C(=O)[C@@H](NC(=O)Cn4cnnn4)[C@H]3SC2)s1` [CEFAZOLIN SODIUM], the half-inhibitory concentration (IC50) on Bile salt export pump was over 133 µM; in experiment [1] it was over 133 µM; in experiment [2], over 133 µM; in experiment [3] it was 54.2 µM.
On to `C[C@@H]1C[C@H]2[C@@H]3CCC4=CC(=O)C=C[C@]4(C)[C@@]3(F)[C@@H](O)C[C@]2(C)[C@@]1(O)C(=O)CO` [DEXAMETHASONE], for which the IC50 (on Bile salt export pump; in experiment [1]; in experiment [2]; in experiment [3]) was over 133 µM in each case.
Consider `CCC1(C)CC(=O)NC1=O` (stereo not drawn) [ETHOSUXIMIDE], for which the concentration for half-maximal inhibition (IC50) (on Bile salt export pump; in experiment [1]; in experiment [2]; in experiment [3]) was over 133 µM each time.
In the case of `O=C(c1ccccc1)c1ccc2n1CCC2C(=O)O` (stereo not drawn) [KETOROLAC TROMETHAMINE], the half-maximal inhibitory concentration (IC50) at Bile salt export pump was over 133 µM; in experiment [1] it was over 133 µM; in experiment [2] it was over 133 µM; in experiment [3], 2.7 µM.
With `C=CC(N)CCC(=O)O` (stereo not drawn) [VIGABATRIN], the concentration for half-maximal inhibition (IC50) (on Bile salt export pump; in experiment [1]; in experiment [2]; in experiment [3]) was over 133 µM throughout.
As to `NC(=O)N1c2ccccc2C=Cc2ccccc21` [CARBAMAZEPINE], the IC50 (at Bile salt export pump; in experiment [1]; in experiment [2]; in experiment [3]) was over 133 µM each time.
With `CCN(CC)CCOc1ccc(C(=C(Cl)c2ccccc2)c2ccccc2)cc1` [CLOMIPHENE], the half-inhibitory concentration (IC50) (on Bile salt export pump; in experiment [1]; in experiment [2]; in experiment [3]) was over 133 µM throughout.
For `c1ccc(C2(c3ccccc3)CC2C2=NCCN2)cc1` (stereo not drawn) [CIFENLINE], the 50% inhibitory concentration (IC50) (at Bile salt export pump; in experiment [1]; in experiment [2]; in experiment [3]) was over 133 µM throughout.
With `CCN1CCC[C@H]1CNC(=O)c1c(OC)ccc(Br)c1OC` [REMOXIPRIDE], the IC50 (on Bile salt export pump; in experiment [1]; in experiment [2]; in experiment [3]) was over 133 µM throughout.
On to `CC(C)NCC(O)c1ccc(NS(C)(=O)=O)cc1` (stereo not drawn) [SOTALOL], for which the 50% inhibitory concentration (IC50) (on Bile salt export pump; in experiment [1]; in experiment [2]; in experiment [3]) was over 133 µM in each case.
As to `CC(C)NCC(O)COc1ccc(CC(N)=O)cc1` (stereo not drawn) [ATENOLOL], the IC50 (at Bile salt export pump; in experiment [1]; in experiment [2]; in experiment [3]) was over 133 µM throughout.
As to `Nc1nc(O)c2ncn(COC(CO)CO)c2n1` [GANCICLOVIR], the IC50 (on Bile salt export pump; in experiment [1]; in experiment [2]; in experiment [3]) was over 133 µM throughout.
`COc1ccc2cccc(CCNC(C)=O)c2c1` [AGOMELATINE]: the IC50 (on Bile salt export pump; in experiment [1]; in experiment [2]; in experiment [3]) was over 133 µM each time.
As to `Nc1cccc2c1CN(C1CCC(=O)NC1=O)C2=O` (stereo not drawn) [LENALIDOMIDE], the IC50 (at Bile salt export pump; in experiment [1]; in experiment [2]; in experiment [3]) was over 133 µM in each case.
Take `Cn1c(=O)n(-c2ccc(C(C)(C)C#N)cc2)c2c3cc(-c4cnc5ccccc5c4)ccc3ncc21` [DACTOLISIB]: the IC50 is 7.9 µM at Bile salt export pump, over 133 µM in experiment [1], over 133 µM in experiment [2] and over 133 µM in experiment [3].

The values above are taken from ChEMBL document CHEMBL4028801, “A multifactorial approach to hepatobiliary transporter assessment enables improved therapeutic compound development” (Toxicol Sci, 2013).
